Results: the kinase profiling compilation of Christmann-Franck et al. (2016)

Key:
Assay in all cases: KINOMEscan competition binding
Settings in all cases: compound 10.0 µM
[1] = biological target: ADCK3 (human) (UniProt Q8NI60)
[2] = biological target: ADCK4 (human) (UniProt Q96D53)
[3] = biological target: BLK (human) (UniProt P51451)
[4] = biological target: BMPR1A (human) (UniProt P36894)
[5] = biological target: BRAF (human) (UniProt P15056)
[6] = biological target: CAMK2B (human) (UniProt Q13554)
[7] = biological target: CDK18 (human) (UniProt Q07002)
[8] = biological target: CDK4 CCND1 (human) (UniProt P11802+P24385)
[9] = biological target: CDKL3 (human) (UniProt Q8IVW4)
[10] = biological target: CHEK1 (human) (UniProt O14757)
[11] = biological target: CSNK1G2 (human) (UniProt P78368)
[12] = biological target: EGFR (human) (UniProt P00533)
Chain of EGFR (human) (P00533 whole entry, looked up): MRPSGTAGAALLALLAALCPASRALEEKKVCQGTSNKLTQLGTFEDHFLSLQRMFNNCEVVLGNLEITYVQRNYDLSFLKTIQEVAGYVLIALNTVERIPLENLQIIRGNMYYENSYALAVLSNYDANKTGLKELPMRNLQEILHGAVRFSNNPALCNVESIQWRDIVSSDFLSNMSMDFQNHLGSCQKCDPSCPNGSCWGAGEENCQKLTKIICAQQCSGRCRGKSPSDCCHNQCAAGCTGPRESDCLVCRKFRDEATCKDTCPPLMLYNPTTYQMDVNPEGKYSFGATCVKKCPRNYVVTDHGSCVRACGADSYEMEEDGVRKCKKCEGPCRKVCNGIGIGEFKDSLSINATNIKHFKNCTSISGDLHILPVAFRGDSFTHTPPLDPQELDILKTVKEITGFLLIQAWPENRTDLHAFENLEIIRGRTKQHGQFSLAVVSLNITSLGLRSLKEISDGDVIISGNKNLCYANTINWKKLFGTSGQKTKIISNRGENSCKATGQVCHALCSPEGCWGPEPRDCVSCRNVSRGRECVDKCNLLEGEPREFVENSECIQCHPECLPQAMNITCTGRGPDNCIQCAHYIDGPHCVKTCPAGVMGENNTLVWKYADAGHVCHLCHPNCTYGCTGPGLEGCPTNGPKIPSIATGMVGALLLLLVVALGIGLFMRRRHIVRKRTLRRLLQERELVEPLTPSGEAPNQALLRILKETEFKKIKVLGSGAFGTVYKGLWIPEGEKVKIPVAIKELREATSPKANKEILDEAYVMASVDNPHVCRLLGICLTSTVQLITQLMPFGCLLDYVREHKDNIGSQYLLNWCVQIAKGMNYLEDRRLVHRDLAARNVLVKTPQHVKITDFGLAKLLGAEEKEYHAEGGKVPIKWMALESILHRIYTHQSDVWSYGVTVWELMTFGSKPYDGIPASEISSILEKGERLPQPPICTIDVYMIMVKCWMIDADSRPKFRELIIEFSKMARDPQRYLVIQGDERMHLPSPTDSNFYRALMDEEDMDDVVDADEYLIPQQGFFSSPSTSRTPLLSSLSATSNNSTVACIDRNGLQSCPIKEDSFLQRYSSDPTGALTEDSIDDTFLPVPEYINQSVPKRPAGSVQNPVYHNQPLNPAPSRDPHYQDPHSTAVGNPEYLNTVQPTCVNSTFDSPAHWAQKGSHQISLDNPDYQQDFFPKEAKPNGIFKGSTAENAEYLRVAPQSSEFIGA

[13] = system: FLT3 (human), P36888 [R834Q]
[14] = biological target: FRK (human) (UniProt P42685)
[15] = biological target: HUNK (human) (UniProt P57058)
[16] = biological target: IGF1R (human) (UniProt P08069)
[17] = biological target: LIMK1 (human) (UniProt P53667)
Chain of LIMK1 (human) (P53667 whole entry, looked up): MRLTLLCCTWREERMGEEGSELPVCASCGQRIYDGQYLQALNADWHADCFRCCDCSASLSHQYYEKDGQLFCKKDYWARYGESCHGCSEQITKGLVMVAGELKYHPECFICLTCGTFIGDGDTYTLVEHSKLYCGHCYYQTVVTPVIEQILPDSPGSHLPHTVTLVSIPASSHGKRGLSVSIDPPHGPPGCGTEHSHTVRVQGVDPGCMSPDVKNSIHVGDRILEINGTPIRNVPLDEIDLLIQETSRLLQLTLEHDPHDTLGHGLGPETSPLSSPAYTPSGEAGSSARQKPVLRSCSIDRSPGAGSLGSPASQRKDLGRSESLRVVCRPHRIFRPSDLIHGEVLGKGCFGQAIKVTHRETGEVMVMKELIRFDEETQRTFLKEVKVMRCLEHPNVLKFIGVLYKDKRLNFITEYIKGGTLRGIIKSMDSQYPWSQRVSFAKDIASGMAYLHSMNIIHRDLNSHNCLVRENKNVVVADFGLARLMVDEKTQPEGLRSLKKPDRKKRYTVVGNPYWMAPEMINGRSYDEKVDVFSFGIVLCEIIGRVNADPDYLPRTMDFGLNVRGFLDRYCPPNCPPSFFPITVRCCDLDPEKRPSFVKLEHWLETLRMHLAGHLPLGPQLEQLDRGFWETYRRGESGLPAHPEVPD

[18] = biological target: MAP2K5 (human) (UniProt Q13163)
[19] = biological target: MAP3K10 (human) (UniProt Q02779)
[20] = biological target: MAP3K11 (human) (UniProt Q16584)
[21] = biological target: MAP3K15 (human) (UniProt Q6ZN16)
[22] = biological target: MAP3K2 (human) (UniProt Q9Y2U5)
[23] = biological target: MAP3K3 (human) (UniProt Q99759)
[24] = biological target: MAP3K7 (human) (UniProt O43318)
Chain of MAP3K7 (human) (O43318 whole entry, looked up): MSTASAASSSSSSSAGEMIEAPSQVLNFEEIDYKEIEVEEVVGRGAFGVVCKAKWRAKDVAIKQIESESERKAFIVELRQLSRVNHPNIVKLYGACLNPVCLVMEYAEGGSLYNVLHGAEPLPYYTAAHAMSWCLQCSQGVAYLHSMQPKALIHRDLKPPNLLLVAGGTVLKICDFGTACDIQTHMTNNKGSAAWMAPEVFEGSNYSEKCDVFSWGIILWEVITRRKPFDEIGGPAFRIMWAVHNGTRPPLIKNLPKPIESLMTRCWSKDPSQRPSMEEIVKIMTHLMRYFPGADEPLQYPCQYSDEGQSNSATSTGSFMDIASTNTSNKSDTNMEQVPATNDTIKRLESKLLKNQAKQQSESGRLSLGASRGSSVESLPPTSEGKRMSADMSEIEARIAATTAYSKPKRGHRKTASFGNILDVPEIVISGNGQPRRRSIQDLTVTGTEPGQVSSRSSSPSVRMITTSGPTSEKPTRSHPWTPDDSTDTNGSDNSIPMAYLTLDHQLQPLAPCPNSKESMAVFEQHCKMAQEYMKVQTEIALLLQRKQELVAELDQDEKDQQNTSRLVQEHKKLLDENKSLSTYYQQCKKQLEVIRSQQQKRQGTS

[25] = biological target: MAP4K1 (human) (UniProt Q92918)
[26] = biological target: MAPK10 (human) (UniProt P53779)
[27] = biological target: MAPK13 (human) (UniProt O15264)
Chain of MAPK13 (human) (O15264 whole entry, looked up): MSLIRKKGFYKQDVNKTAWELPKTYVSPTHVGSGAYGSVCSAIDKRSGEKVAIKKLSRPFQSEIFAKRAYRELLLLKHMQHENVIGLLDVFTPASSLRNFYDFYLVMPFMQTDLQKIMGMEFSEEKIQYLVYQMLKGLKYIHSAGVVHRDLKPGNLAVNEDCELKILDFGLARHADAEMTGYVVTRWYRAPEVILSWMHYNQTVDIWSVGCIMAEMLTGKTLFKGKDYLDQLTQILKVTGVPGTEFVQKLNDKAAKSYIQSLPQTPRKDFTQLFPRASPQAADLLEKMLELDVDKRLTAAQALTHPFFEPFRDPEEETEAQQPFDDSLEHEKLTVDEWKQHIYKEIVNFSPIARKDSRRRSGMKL

[28] = biological target: MARK3 (human) (UniProt P27448)
[29] = biological target: MKNK1 (human) (UniProt Q9BUB5)
[30] = biological target: MST4 (human) (UniProt Q9P289)
[31] = biological target: MYLK3 (human) (UniProt Q32MK0)
[32] = biological target: PAK3 (human) (UniProt O75914)
[33] = biological target: PLK1 (human) (UniProt P53350)
[34] = biological target: RAF1 (human) (UniProt P04049)
[35] = biological target: ROCK2 (human) (UniProt O75116)
[36] = biological target: SGK110 (human) (UniProt P0C264)
[37] = biological target: SIK1 (human) (UniProt P57059)
Chain of SIK1 (human) (P57059 whole entry, looked up): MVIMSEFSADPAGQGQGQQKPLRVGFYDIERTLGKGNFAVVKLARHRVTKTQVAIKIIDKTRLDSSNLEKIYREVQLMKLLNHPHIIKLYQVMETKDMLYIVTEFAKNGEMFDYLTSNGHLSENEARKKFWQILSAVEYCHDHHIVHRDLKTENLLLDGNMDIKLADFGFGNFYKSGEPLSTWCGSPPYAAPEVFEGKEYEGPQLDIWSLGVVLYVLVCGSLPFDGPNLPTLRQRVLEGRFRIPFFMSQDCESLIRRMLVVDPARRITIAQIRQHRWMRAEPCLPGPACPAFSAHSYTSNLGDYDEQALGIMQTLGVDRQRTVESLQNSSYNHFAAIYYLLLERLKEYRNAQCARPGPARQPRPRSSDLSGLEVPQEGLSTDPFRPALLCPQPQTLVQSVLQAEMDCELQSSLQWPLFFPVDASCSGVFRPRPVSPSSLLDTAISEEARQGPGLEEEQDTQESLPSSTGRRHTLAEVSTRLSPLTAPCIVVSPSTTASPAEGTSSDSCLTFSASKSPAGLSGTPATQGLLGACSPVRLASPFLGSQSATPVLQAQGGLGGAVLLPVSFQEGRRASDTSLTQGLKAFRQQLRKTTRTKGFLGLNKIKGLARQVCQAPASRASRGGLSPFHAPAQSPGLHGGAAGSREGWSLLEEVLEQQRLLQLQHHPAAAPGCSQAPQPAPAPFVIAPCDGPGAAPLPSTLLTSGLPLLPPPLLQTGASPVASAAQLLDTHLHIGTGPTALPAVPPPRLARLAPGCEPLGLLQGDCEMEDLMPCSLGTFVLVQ

[38] = biological target: SIK3 (human) (UniProt Q9Y2K2)
[39] = biological target: TAOK3 (human) (UniProt Q9H2K8)
Chain of TAOK3 (human) (Q9H2K8 whole entry, looked up): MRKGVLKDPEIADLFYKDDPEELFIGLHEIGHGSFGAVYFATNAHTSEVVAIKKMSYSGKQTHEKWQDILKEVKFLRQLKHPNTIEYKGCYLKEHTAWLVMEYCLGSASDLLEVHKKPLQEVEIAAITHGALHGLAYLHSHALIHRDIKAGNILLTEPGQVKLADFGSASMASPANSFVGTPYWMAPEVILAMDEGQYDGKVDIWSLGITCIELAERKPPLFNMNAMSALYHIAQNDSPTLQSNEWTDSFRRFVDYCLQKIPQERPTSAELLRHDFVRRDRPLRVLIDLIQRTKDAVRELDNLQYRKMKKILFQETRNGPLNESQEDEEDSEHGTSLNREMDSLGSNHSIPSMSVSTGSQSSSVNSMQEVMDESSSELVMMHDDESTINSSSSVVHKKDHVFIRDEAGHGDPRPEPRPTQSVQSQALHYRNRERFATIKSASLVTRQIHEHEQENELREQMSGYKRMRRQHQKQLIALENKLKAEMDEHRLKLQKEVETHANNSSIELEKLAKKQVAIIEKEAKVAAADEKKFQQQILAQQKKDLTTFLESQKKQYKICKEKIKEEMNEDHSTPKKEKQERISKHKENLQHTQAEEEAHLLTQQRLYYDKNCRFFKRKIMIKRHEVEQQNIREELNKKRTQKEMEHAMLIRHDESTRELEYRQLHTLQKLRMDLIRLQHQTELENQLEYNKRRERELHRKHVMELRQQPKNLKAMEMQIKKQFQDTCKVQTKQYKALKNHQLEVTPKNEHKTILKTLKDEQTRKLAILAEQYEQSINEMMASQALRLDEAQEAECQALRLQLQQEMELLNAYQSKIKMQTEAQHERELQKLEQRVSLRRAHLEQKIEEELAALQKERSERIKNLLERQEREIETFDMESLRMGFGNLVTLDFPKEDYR

[40] = biological target: TLK1 (human) (UniProt Q9UKI8)
[41] = biological target: ULK3 (human) (UniProt Q6PHR2)

Chain of BLK (human) (P51451 whole entry, looked up): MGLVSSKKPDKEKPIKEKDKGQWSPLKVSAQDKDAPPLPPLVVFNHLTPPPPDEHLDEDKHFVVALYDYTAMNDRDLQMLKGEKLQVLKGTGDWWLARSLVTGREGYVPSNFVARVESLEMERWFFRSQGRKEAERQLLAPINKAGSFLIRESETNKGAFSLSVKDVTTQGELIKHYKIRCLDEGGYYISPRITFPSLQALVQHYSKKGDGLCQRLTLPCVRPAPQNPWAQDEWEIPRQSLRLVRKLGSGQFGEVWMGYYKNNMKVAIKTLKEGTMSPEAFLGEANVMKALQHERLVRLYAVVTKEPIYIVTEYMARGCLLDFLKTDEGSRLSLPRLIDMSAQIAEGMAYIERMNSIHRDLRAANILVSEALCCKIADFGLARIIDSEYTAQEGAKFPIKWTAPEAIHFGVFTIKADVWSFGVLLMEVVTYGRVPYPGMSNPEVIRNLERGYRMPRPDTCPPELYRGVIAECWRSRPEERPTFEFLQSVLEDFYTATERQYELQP

SMILES: COc1ccc(-c2ccc3c(N4CCOCC4)nc(N4C[C@@H](C)O[C@@H](C)C4)nc3n2)cc1CO
- kinase still bound, per cent of control [1]: 87%
- kinase still bound, per cent of control [2]: 87%
- kinase still bound, per cent of control [3]: 100%
- kinase still bound, per cent of control [4]: 70%
- kinase still bound, per cent of control [5]: 81%
- kinase still bound, per cent of control [6]: 96%
- per cent of control [7]: 100%
- per cent of control [8]: 70%
- per cent of control [9]: 90%
- kinase still bound, per cent of control [10]: 99%
- kinase still bound, per cent of control [11]: 100%
- kinase still bound, per cent of control [12]: 100%
- kinase still bound, per cent of control [13]: 100%
- kinase still bound, per cent of control [14]: 100%
- kinase still bound, per cent of control [15]: 90%
- per cent of control [16]: 100%
- kinase still bound, per cent of control [17]: 100%
- kinase still bound, per cent of control [18]: 100%
- kinase still bound, per cent of control [19]: 98%
- kinase still bound, per cent of control [20]: 100%
- kinase still bound, per cent of control [21]: 97%
- kinase still bound, per cent of control [22]: 78%
- kinase still bound, per cent of control [23]: 76%
- kinase still bound, per cent of control [24]: 99%
- kinase still bound, per cent of control [25]: 88%
- kinase still bound, per cent of control [26]: 81%
- kinase still bound, per cent of control [27]: 71%
- kinase still bound, per cent of control [28]: 96%
- kinase still bound, per cent of control [29]: 36%
- kinase still bound, per cent of control [30]: 100%
- kinase still bound, per cent of control [31]: 100%
- kinase still bound, per cent of control [32]: 100%
- kinase still bound, per cent of control [33]: 55%
- kinase still bound, per cent of control [34]: 100%
- kinase still bound, per cent of control [35]: 21%
- kinase still bound, per cent of control [36]: 98%
- kinase still bound, per cent of control [37]: 90%
- kinase still bound, per cent of control [38]: 97%
- kinase still bound, per cent of control [39]: 90%
- kinase still bound, per cent of control [40]: 94%
- kinase still bound, per cent of control [41]: 100%
